Values after ≈ are worked out from the molar mass of the structure shown. Blank lines part the entries; values can stand above or below the molecule they belong to.
Assays:
gram-negative species = details: cited from earlier work
Staphylococcus aureus = details: cited from earlier work
penicillinase = experiment: Color change / absorbance spectrum in penicillinase; assay type: biochemical; details: for Absorbance/time response in penicillinase, comparison with CENTA: FIG. 5
From the text: FIG. 3 is a set of absorbance spectrum charts showing the color change of Compound 1 (ANT) in the presence of a β-lactamase came with a definite shift in Compound 1 (ANT) absorbance spectrum upon adding penicillinase, thus cleaving the β-lactam ring and expelling the 3′-leaving group. […] As the β-lactam ring is cleaved by the enzymes, the peak at 260 nm disappears.
FIG. 5 is a comparison between Compound 1 (ANT) response and CENTA response.
FIG. 6 is a chart showing deprotected ANT-maleimide in penicillinase, measuring the absorbance of conjugate at different time points.

[1] = molecular target: T1, β-lactamase from Bacillus cereus (Bacillus cereus, UniProt P04190); assay type: biochemical
T1 construct: purchased MilliporeSigma
Experimental: (§1) Substrate Compound 2 was tested with a class B β-lactamase from Bacillus cereus (Bebrone et al., Antimicrobial Agents Chemother., 45, 1868-1871 (2001)). Substrate Compound 2 was tested with class C β-lactamases (from Pseudomonas aeruginosa (Mirsalehian et al., Iranian J. Microbiol., 6, 306-310 (2014)) and β-lactamase from Enterobacter cloacae (Seeberg, Tolxdorff-Neutzling & Wiedemann, Antimicrobial Agents Chemother., 23, 918-925 (1983)). These bacteria are present in many infections, including wounds. See, Bodey et al., Clinical Infectious Diseases, 5, 279-313 (2011) and Davin-Regli & Pages, Frontiers in Microbiology, 6, 392 (2015).
The inventors measured the concentration-dependent absorbance shift in a spectral scan of Substrate Compound 2 with different concentrations (U/mL) of β-lactamase from Bacillus cereus or in phosphate-buffered saline after 45 minutes at 37° C. The absorbance signal at 410 nm increased to a maximum as a function of β-lactamase concentration. The inventors also performed these measurements for β-lactamase from Pseudomonas aeruginosa and Enterobacter cloacae.
96-well plate. […] The samples of Substrate Compound 2 in β-lactamases from Bacillus cereus (200 U/mL in M sodium phosphate buffer, pH 7) were incubated for thirty minutes at 37° C. before the absorbance of the solution from 230 to 650 nm was measured using a BioTekQ® […]

E. cloacae = experiment: Microdilution assay, antibacterial efficacy (MIC); assay type: cell-based; details: Enterobacter cloacae, Gram −, βL producing Yes, 18 h, 37° C.
MRSA MW2 = experiment: Microdilution assay, antibacterial efficacy (MIC); assay type: cell-based, methicillin-resistant Staphylococcus aureus; details: Staphylococcus aureus, Gram +, βL producing Yes, 18 h, 37° C.
Experimental: (§2) The antibacterial effect of Substrate Compound 2 was tested against Staphylococcus aureus, Escherichia coli, MRSA, and Pseudomonas aeruginosa in a microdilution assay. Substrate Compound 2 was dissolved in dimethyl sulfoxide at a concentration of 2.56 mg/mL and diluted to a concentration of 256 μg/mL in sterile phosphate-buffered saline. Substrate Compound 2 solutions and a control of 10% dimethyl sulfoxide in cation-adjusted Mueller Hinton broth (CMHB) or tryptic soy broth (TSB) were serially diluted 1:2 with cation-adjusted Mueller Hinton broth or tryptic soy broth in a 96-well plate. Cation-adjusted Muller-Hinton broth (CMHB) is commercially available from MilliporeSigma (Billerica, MA, USA).
(§3) Bacteria in its log phase was added to the wells at a final concentration of 10^5 CFU/mL. Positive controls of bacteria cultured in only media and negative controls of cation-adjusted Mueller Hinton broth or tryptic soy broth without bacteria were included. After eighteen hours of shaking at 100 rpm at 37° C., the optical density at 600 nm (OD600) was measured using a BioTekQ® normalized bacteria density was calculated using equation 1: […]

[2] = system: β-lactamases from Bacillus cereus, Pseudomonas aeruginosa, and Enterobacter cloacae; experiment: Michaelis-Menten kinetics of hydrolysis; assay type: biochemical; details: compared with commercially available chromogenic β-lactamase substrates
Experimental: To further characterize substrate-enzyme relationships between Substrate Compound 2 and β-lactamases, kinetic parameters were measured using Michaelis-Menten kinetics.
Parameters were determined for Substrate Compound 2 and commercially available chromogenic β-lactamase substrates CENTA and nitrocefin as comparisons, using different β-lactamases. All kinetic experiments were performed for concentrations of Substrate Compound 2 ranging from 0.025-0.2 mg/mL with 10% DMSO, and concentrations of 4 ranging from 1.5-12.1 mg/mL in 0.15 M sodium phosphate buffer pH 7 at 37° C. Hydrolysis of Substrate Compound 2 was measured by continuously recording the change in absorbance at 410 nm on a BioTekQ® Cytation3 plate reader. The kM, kcat, and VMax values were calculated through the initial velocities and the direct fitting of the Michaelis-Menten curve to the data through GraphPad Prism software.

B. cereus = experiment: Microdilution assay, antibacterial efficacy (MIC); assay type: cell-based; details: Bacillus cereus, Gram +, βL producing Yes, 18 h, 37° C.
[3] = molecular target: T2, β-lactamase from Enterobacter cloacae (Enterobacter cloacae, UniProt P05364); experiment: Colorimetric / UV-vis response to β-lactamase; assay type: biochemical; details: 10% DMSO, 37° C.
T2 construct: purchased MilliporeSigma
Experimental: as §1
(§4) 96-well plate. Substrate Compound 2 was dissolved in DMSO at a concentration of two mg/ml. Fifteen μL of Substrate Compound 2 was added to a well of a 96-well plate. […] The samples of Substrate Compound 2 in β-lactamases from Bacillus cereus (200 U/mL in M sodium phosphate buffer, pH 7) were incubated for thirty minutes at 37° C. before the absorbance of the solution from 230 to 650 nm was measured using a BioTekQ®
(§5) Cytation3 plate reader. For the samples in Pseudomonas aeruginosa (50 U/mL in 0.15 M sodium phosphate buffer, pH 7), the absorbance was measured after ninety minutes at 37° C. […] For the samples in Enterobacter cloacae (1 U/ml in M sodium phosphate buffer, pH 7), the absorbance was measured after three hours at 37° C. […]

[4] = molecular target: T3, β-lactamase from Pseudomonas aeruginosa (Pseudomonas aeruginosa, UniProt P24735); experiment: Colorimetric / UV-vis response to β-lactamase; assay type: biochemical; details: 10% DMSO, 37° C.
T3 construct: purchased MilliporeSigma
Experimental: as §1, §4, §5

S. aureus 29213 = experiment: Microdilution assay, antibacterial efficacy (MIC); assay type: cell-based; details: Staphylococcus aureus, Gram +, βL producing Yes, 18 h, 37° C.
Experimental: as §2, §3

P. aeruginosa PA01 = experiment: Microdilution assay, antibacterial efficacy (MIC); assay type: cell-based; details: Pseudomonas aeruginosa, Gram −, βL producing Yes, 18 h, 37° C.
Experimental: as §2, §3

E. coli 25922 = experiment: Microdilution assay, antibacterial efficacy (MIC); assay type: cell-based; details: Escherichia coli, Gram −, βL producing Yes, 18 h, 37° C.
Experimental: as §2, §3

S. aureus 25923 = experiment: Microdilution assay, antibacterial efficacy (MIC); assay type: cell-based; details: Staphylococcus aureus, Gram +, βL producing No, 18 h, 37° C.
Experimental: as §2, §3

Aqueous solubility = assay type: physicochemical

T1 sequence (P04190 31-257): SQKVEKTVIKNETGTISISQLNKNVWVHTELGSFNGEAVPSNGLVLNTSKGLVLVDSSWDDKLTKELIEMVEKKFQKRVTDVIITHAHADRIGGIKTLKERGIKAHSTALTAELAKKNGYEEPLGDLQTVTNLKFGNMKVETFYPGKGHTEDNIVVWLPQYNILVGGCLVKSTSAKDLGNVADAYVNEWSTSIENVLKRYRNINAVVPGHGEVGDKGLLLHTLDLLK
T2 sequence (P05364 21-381): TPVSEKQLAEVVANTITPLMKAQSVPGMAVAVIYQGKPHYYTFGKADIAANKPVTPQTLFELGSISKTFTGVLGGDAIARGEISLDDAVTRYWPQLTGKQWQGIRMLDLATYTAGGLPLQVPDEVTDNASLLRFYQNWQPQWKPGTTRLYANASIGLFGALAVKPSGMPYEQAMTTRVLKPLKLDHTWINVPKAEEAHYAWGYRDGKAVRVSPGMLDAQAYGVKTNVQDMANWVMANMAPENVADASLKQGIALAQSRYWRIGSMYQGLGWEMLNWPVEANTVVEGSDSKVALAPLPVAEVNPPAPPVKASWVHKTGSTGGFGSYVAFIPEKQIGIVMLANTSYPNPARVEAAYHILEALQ
T3 sequence (P24735 27-397): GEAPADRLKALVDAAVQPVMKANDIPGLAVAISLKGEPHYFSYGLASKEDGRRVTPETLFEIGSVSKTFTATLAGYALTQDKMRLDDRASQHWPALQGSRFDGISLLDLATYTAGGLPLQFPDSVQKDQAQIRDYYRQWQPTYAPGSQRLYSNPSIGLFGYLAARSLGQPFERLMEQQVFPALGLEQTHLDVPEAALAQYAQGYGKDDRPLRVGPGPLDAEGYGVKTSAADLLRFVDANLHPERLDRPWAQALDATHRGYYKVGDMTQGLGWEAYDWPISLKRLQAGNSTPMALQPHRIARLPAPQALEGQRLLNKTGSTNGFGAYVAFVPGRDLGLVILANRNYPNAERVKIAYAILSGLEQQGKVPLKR

SMILES: O=C(Cc1cccs1)N[C@@H]1C(=O)N2C(C(=O)O)=C(/C=C/c3ccc([N+](=O)[O-])cc3[N+](=O)[O-])CS[C@H]12 [nitrocefin]
Antibacterial activity against gram-negative species (gram-negative species): not antibacterial | Antibacterial activity against Staphylococcus aureus (Staphylococcus aureus): some activity

SMILES: CN(C)c1ccc(N=Nc2cccc[n+]2CC2=C(C(=O)[O-])N3C(=O)[C@@H](NC(=O)Cc4cccs4)[C@H]3SC2)cc1 [PADAC]
Antibacterial activity against gram-negative species (gram-negative species): not antibacterial | Antibacterial activity against Staphylococcus aureus (Staphylococcus aureus): some activity

SMILES: O=C(Cc1cccs1)N[C@@H]1C(=O)N2C(C(=O)O)=C(CSc3ccc([N+](=O)[O-])c(C(=O)O)c3)CS[C@H]12 [CENTA]
Antibacterial activity against gram-negative species (gram-negative species): not antibacterial | Antibacterial activity against Staphylococcus aureus (Staphylococcus aureus): some activity | Absorbance/time response in penicillinase, comparison with CENTA (penicillinase): reaches its maximum absorbance at a faster rate than Compound 1 (ANT)

SMILES: NC1C(=O)N2C(C(=O)O)=C(CSc3ccc([N+](=O)[O-])cc3)CSC12 (stereo not drawn) [Substrate Compound 2]
Lower detection limit of β-lactamase ([1]; absorbance at 410 nm, 45 minutes at 37° C., β-lactamase 0.78-400 U/mL): approximately 3.12 U/mL | Color change when mixed with β-lactamase ([1]; β-lactamase from Bacillus cereus, 10% DMSO, 37° C.): changed color from clear to yellow | MIC (E. cloacae): > 128 µg/mL | MIC (MRSA MW2): > 128 µg/mL | Kinetic rate of hydrolysis by β-lactamases [2]: kinetic rate similar to commercially available chromogenic β-lactamase substrates | MIC (B. cereus): > 128 µg/mL | Color change when mixed with β-lactamase [3]: changed color from clear to yellow | Color change when mixed with β-lactamase [4]: changed color from clear to yellow | MIC (S. aureus 29213): 8 µg/mL (≈ 21.8 µM) | MIC (P. aeruginosa PA01): > 128 µg/mL | MIC (E. coli 25922): > 128 µg/mL | MIC (S. aureus 25923): 8 µg/mL (≈ 21.8 µM) | Aqueous solubility (Aqueous solubility): not soluble in aqueous conditions

Color change in penicillinase compared to PBS (penicillinase; 1.5 hours at 37° C.): showed a significant color change | Color change of the conjugate incubated in penicillinase or phosphate-buffered saline (penicillinase; Example 1, protected conjugate of ACLE and NBT): does not undergo a color change | Absorbance/time response in penicillinase, comparison with CENTA (penicillinase): behave similarly
SMILES: COc1ccc(COC(=O)C2=C(CSc3ccc([N+](=O)[O-])cc3)CSC3C(N)C(=O)N23)cc1 (stereo not drawn) [Compound 1]
Shift of maximum absorbance peak on cleavage by penicillinase (penicillinase; 1.5 hours at 37° C.): maximum absorbance peak shifts from 345 nm to 410 nm
